Key:
[1] = system: HepG2 cells transfected with pHBV1.2×; conditions: 0.1–10 μM, 6 days
[2] = target: T1, Cp149 (truncated HBV core protein) (Hepatitis B virus genotype D subtype ayw, UniProt P03146); assay: biochemical
T1 construct: Cp149 (amino acids 1–149) is a truncated form of the HBV core protein; made in house; host or cells: Escherichia coli
T1 sequence (P03146 1-149): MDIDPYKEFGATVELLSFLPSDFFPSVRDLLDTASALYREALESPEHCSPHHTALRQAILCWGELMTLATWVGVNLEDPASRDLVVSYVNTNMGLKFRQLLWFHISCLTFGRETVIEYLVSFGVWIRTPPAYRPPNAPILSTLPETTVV

For Cc1cc(C2CCCCC2)n(O)c(=O)c1 [Ciclopirox, 6-cyclohexyl-1-hydroxy-4-methyl-2(1 H)-pyridone], the “cytotoxicity” value [1] was “no significant cytotoxicity” and the IC50 [2] was 445 ± 17 nM.

Reference: paper PMC6522524 (Nature Communications, 2019)
